Experimental data published in patent publication US20240270821A1, “GIP/GLP1/GCG TRI-RECEPTOR AGONISTS AND USES THEREOF” (priority 2023, published 2024).
Read-outs that look alike come from different tables or passages of the source. Starred links: 1 amine or outer side, 2 acyl side, 3 side chain; linkers in the order of their positions; H or OH if unused. Non-standard residues stand in square brackets, D forms with d. Groups on a side chain read outwards from the residue. *: point of attachment. C18 diacid = O=C(O)CCCCCCCCCCCCCCCCC(=O)*; γGlu = O=C(O)[C@H](CCC(=O)[*:2])N[*:1]; αMe4Pal = C[C@](N)(Cc1ccncc1)C(=O)O; αMeY = C[C@](N)(Cc1ccc(O)cc1)C(=O)O; 4Pal = N[C@@H](Cc1ccncc1)C(=O)O; αMeL = CC(C)C[C@](C)(N)C(=O)O; Orn = NCCC[C@H](N)C(=O)O; Aib = CC(C)(N)C(=O)O

Experiments:
hGIPR [1] = target: T1, hGIPR (Homo sapiens, UniProt P48546); assay: Functional cAMP activity in the presence of 1% HSA; format: cell-based; conditions: read-out: cAMP Rel EC50, hGIPR
T1 sequence (P48546 22-466): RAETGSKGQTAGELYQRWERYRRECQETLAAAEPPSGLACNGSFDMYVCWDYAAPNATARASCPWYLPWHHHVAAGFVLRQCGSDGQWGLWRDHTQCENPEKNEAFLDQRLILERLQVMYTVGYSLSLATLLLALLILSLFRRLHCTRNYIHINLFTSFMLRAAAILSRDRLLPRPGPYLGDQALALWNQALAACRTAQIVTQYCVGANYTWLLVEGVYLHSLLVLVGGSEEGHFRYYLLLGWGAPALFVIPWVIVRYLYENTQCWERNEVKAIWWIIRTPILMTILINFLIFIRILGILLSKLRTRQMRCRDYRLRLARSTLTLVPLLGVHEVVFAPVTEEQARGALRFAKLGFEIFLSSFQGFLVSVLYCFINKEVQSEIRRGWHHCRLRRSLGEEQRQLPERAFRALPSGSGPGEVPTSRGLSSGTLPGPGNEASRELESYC

in vivo [2] = assay: in vivo; parameters: species or system cynomolgus monkeys; conditions: both sexes, cynomolgus monkey, po; for bioavailability: 10 mg; for AUC(0-inf) / CL/F / Cmax / Tmax / half-life: 300 mg
Method: (§1) A study is designed to evaluate the oral bioavailability of Example polypeptides in cynomolgus monkeys. […] Standards and controls are prepared in cynomolgus monkey plasma, and any dilutions required to bring samples into the quantitative range are also performed in control cynomolgus monkey plasma. To control assay variability, an internal standard (IS) is added to all the standards and samples. The Examples and IS are extracted from 100% monkey plasma (50 μL) by protein precipitation using isopropyl alcohol and methanol (50:50 v/v). The samples are then centrifuged (3000 rpm for 10 minutes) and the supernatant is transferred to a Siricco Protein Precipitation Plate. The samples are loaded on a Sep-Pak tC18 SPE microelution plate that is conditioned with 2% formic acid in acetonitrile and water. The compounds are then washed with 2% formic acid in water and eluted using 2% formic acid in acetonitrile into a plate containing 5× Invitrosol and 1% formic acid in water prior to injecting an aliquot (10 μL) on to Xselect CSH C18, 3.5 μm, 2.1×20 mm for LC/MS analysis.
[…] Blood samples are collected up to 504 hours post-dose. Plasma is harvested from blood samples by centrifugation and stored frozen (−70° C.) until analysis. Plasma concentrations of the molecules are detected using the bioanalytical method described above.

[3] = Body weight in diet-induced obese C57BL/6 mice; format: in vivo; conditions: 10 nmol/kg SC QD, percent of starting weight, DIO mice, mean ± SEM n=5
In short: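 Male C57BL/6 DIO mice (41-50 g, 5 per group, randomized by weight) on calorie-rich diet received subcutaneous doses 30-90 min before dark onset, QD or Q3D for 9-16 days. Body weight measured daily, expressed as percent of starting weight, mean±SEM.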

human GcgR = human GcgR (Homo sapiens, UniProt P47871); assay: Functional cAMP activity in the presence of 1% HSA; format: cell-based; conditions: read-out: cAMP Rel EC50, hGcgR
Sequence of human GcgR (P47871 26-477): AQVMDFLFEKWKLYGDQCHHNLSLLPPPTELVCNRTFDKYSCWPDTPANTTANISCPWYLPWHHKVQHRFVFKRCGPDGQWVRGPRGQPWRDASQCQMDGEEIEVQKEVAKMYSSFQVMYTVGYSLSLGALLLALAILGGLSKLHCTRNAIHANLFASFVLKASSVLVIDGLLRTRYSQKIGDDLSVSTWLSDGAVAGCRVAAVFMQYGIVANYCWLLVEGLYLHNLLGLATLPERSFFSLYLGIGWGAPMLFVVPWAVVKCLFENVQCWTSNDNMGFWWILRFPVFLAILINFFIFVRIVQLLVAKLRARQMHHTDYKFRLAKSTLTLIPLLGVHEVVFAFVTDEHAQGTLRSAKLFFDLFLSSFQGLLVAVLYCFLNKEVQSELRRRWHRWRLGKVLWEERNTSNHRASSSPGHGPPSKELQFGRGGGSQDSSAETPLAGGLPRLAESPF

hGLP-1R [4] = target: T2, hGLP-1R (Homo sapiens, UniProt P43220); assay: Functional cAMP activation in the presence of 0.1% casein (no HSA); format: cell-based; conditions: read-out: Relative cAMP EC50, hGLP-1R;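 further: intracellular cAMP rise after 30 min at 37 °C read by HTRF, normalized between buffer only (0%) and maximal control ligand (100%), four-parameter variable-slope fit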
T2 sequence (P43220 24-463): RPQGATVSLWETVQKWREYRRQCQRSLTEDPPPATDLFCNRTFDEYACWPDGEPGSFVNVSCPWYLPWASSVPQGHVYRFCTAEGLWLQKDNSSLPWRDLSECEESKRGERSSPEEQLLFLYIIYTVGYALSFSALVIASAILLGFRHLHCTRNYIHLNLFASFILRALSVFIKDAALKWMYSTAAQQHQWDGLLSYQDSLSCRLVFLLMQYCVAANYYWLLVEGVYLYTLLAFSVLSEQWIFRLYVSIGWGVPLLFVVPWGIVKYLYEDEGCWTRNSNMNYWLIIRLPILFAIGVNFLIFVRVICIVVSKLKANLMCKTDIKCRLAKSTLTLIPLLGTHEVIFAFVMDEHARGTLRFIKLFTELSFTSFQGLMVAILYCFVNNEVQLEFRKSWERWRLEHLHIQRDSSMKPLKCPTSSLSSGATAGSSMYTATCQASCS

hGcgR = hGcgR (Homo sapiens, UniProt P47871); assay: as above; format: cell-based; conditions: read-out: Relative cAMP EC50, hGcgR;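 further: intracellular cAMP rise after 30 min at 37 °C, read by HTRF against a cAMP standard curve, scaled from buffer only (0%) to maximal control ligand response (100%)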
Sequence of hGcgR (P47871 26-477): as the sequence (P47871 26-477) above

in vivo [5] = assay: in vivo; parameters: species or system cynomolgus monkeys; conditions: both sexes, cynomolgus monkey, iv, 10 nmol/kg
Method: as §1
Blood samples are collected over 504 hours. Plasma is harvested from blood samples by centrifugation and stored frozen (−70° C.) until analysis. Plasma concentrations of the molecules are detected using the bioanalytical method described above.

human GLP1-R = human GLP1-R (Homo sapiens, UniProt P43220); assay: GLP1-R internalization assay in HEK293 cells; format: cell-based; conditions: for EC50: HEK293 cells expressing SNAP-GLP-1R, read-out: GLP1R Internalization EC50; for Internalization % TOP: normalized to maximum concentration of GLP-1 (100%)
Sequence of human GLP1-R (P43220 24-463): as the sequence (P43220 24-463) above

hGIPR [6] = target: T1, hGIPR; assay: Functional cAMP activation in the presence of 0.1% casein (no HSA); format: cell-based; conditions: read-out: Relative cAMP EC50, hGIPR;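 on Relative cAMP EC50, hGIPR: intracellular cAMP rise after 30 min at 37 °C read by HTRF against a standard curve, scaled between buffer alone (0%) and top control ligand concentration (100%), four-parameter fit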;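 on Relative cAMP EC50, hGcgR: intracellular cAMP rise after 30 min at 37 °C, read by HTRF against a cAMP standard curve, scaled from buffer only (0%) to maximal control ligand response (100%)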
hGLP-1R [7] = target: T2, hGLP-1R; assay: Functional cAMP activity in the presence of 1% HSA; format: cell-based; conditions: read-out: cAMP Rel EC50, hGLP-1R
[8] = tested on: Intestinal organoid from Göttingen minipig jejunum tissue, 2D monolayer; assay: Cell based in vitro permeability (Papp) assay; format: in vitro ADME
In short: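 2D monolayers derived from Göttingen minipig jejunal organoids on transwell inserts. Basal samples collected at 20 min in the presence of C10. Peptide in apical and basal compartments quantified by LC/MS to give Papp.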

[9] = Pepsin stability assay in simulated gastric fluid; format: in vitro ADME; conditions: pH 1.2, % Intact (SD)
Method: A pepsin stability assay is utilized to determine the relative stability of Example polypeptides in a simulated gastric proteolytic environment. […] The relative amount of intact peptide is quantified by mass spectrometry (MS). […] The examples were dissolved in 50 mM Tris buffer pH 8.0 at a concentration of 10 mg/mL as a stock solution. Pepsin A was reconstituted in SGF at 10 mg/mL. […] The example peptide and pepsin solutions were then incubated at 37° C. in a shaking incubator set at 100 rpm. Samples (25 μL) were withdrawn at different time intervals and quenched with 100 mM ammonium bicarbonate pH 9 (50 μL) to stop proteolytic activity. All samples were centrifuged, and the supernatants were analyzed by LC/MS to determine the remaining intact peptide.

[10] = in the presence of 0.1% casein (no HSA), geometric mean

For `CC[C@H](C)[C@H](NC(=O)[C@H](CC(C)C)NC(=O)[C@](C)(Cc1ccc(O)cc1)NC(=O)[C@@H](CCC(=O)O)NC(=O)[C@@H](NC(=O)[C@H](Cc1ccccc1)NC(=O)[C@H](CCC(=O)O)NC(=O)[C@](C)(Cc1ccncc1)NC(=O)[C@H](CCC(N)=O)NC(=O)[C@H](C)NC(=O)[C@H](CCCCNC(=O)COCCOCCNC(=O)CC[C@H](NC(=O)CCCCCCCCCCCCCCCCC(=O)O)C(=O)O)NC(=O)[C@H](CCCN)NC(=O)[C@H](CC(=O)O)NC(=O)[C@H](CC(C)C)NC(=O)[C@](C)(CC(C)C)NC(=O)[C@@H](NC(=O)[C@](C)(CO)NC(=O)[C@H](Cc1ccncc1)NC(=O)[C@H](CC(=O)O)NC(=O)[C@H](CO)NC(=O)[C@@H](NC(=O)[C@](C)(Cc1ccccc1F)NC(=O)[C@@H](NC(=O)CNC(=O)[C@H](CCC(N)=O)NC(=O)C(C)(C)NC(=O)[C@@H](N)Cc1ccc(O)cc1)[C@@H](C)O)[C@@H](C)O)[C@@H](C)CC)[C@@H](C)CC)C(=O)N[C@@H](CCC(=O)O)C(=O)NCC(=O)NCC(=O)N1CCC[C@H]1C(=O)N[C@@H](CO)C(=O)N[C@@H](CO)C(=O)NCC(=O)N[C@@H](C)C(=O)N1CCC[C@H]1C(=O)N1CCC[C@H]1C(=O)N1CCC[C@H]1C(=O)N[C@@H](CO)C(=O)NCC(=O)N[C@@H](CO)C(N)=O` [Example 699], the EC50 (hGIPR [1]) was 0.566 nM, the bioavailability (in vivo [2]) was 1.3% and the AUC(0-inf) (in vivo [2]) was 7.15 µM·h. The CL/F (in vivo [2]) was 1.51 mL/min/kg, the Cmax (in vivo [2]) was 187 nM and the Tmax (in vivo [2]) was 2.75 h. For the same molecule, the half-life (in vivo [2]) was 34.3 h, the “Body weight (%)” value ([3]; 7 days) was 68.34 ± 0.85 % and the “Body weight (%)” value ([3]; 14 days) was 56.85 ± 2.42 %. The EC50 (human GcgR) was 144 nM, the EC50 (hGLP-1R [4]) was 0.196 nM and the EC50 (hGcgR) was 1.35 nM. The AUC(0-inf) (in vivo [5]) was 9.23 ± 1.64 µM·h, the clearance (in vivo [5]) was 0.0185 mL/min/kg and the half-life (in vivo [5]) was 50.8 ± 13.7 h. For the same molecule, the EC50 (human GLP1-R) was 14.9 nM, the “Internalization % TOP” value (human GLP1-R) was 102% and the EC50 (hGIPR [6]) was 0.00663 nM. The EC50 (hGLP-1R [7]) was 25.3 nM, the “Relative Papp (Compared to internal standard)” value [8] was 0.51 and the remaining at 0.25 h, 0.4 mg/mL [9] was 97.9%.
Work on “H-Y[Aib]QGTFTSD[4Pal]SQ[αMeL]LDKK([γGlu-γGlu-C18 diacid])AQ[αMe4Pal]AFIEYLIAGGPSSGAPPPSGE-NH2 [Example 883]” yielded an EC50 (hGIPR [1]) of 9.41 nM, a bioavailability (in vivo [2]) of 0.3% and an AUC(0-inf) (in vivo [2]) of 1.28 µM·h. The CL/F (in vivo [2]) was 11.1 mL/min/kg, the Cmax (in vivo [2]) was 43.6 nM and the Tmax (in vivo [2]) was 2 h. For the same molecule, the half-life (in vivo [2]) was 29 h, the EC50 (human GcgR) was 578 nM and the EC50 (hGLP-1R [4]; [10]) was 1.05 nM. For the same molecule, the EC50 (hGcgR; [10]) was 4.02 nM, the AUC(0-inf) (in vivo [5]) was 8.69 ± 0.623 µM·h and the clearance (in vivo [5]) was 0.0192 mL/min/kg. The half-life (in vivo [5]) was 62.8 ± 53.9 h, the EC50 (human GLP1-R) was 23.9 nM and the “Internalization % TOP” value (human GLP1-R) was 77.1%. It also gave an EC50 (hGIPR [6]; [10]) of 0.0779 nM and an EC50 (hGLP-1R [7]) of 120 nM.
Work on “H-Y[Aib]QGTFTSD[4Pal]SQ[αMeL]LD[Orn]K([γGlu-γGlu-C18 diacid])AQ[αMe4Pal]AFIE[αMeY]LIEGGPSSGEPPPSGSEE-NH2 [Example 1027]” yielded an EC50 (hGIPR [1]) of 58.1 nM, a bioavailability (in vivo [2]) of 1.2% and an AUC(0-inf) (in vivo [2]) of 5.07 µM·h. For the same molecule, the CL/F (in vivo [2]) was 2.77 mL/min/kg, the Cmax (in vivo [2]) was 135 nM and the Tmax (in vivo [2]) was 2.5 h. For the same molecule, the half-life (in vivo [2]) was 55.7 h, the EC50 (human GcgR) was 1470 nM and the EC50 (hGLP-1R [4]; [10]) was 1.23 nM. It also gave an EC50 (hGcgR; [10]) of 4.99 nM, an AUC(0-inf) (in vivo [5]) of 8.57 ± 1.55 µM·h and a clearance (in vivo [5]) of 0.02 mL/min/kg. For the same molecule, the half-life (in vivo [5]) was 76.4 ± 31.4 h, the EC50 (hGIPR [6]; [10]) was 0.208 nM and the EC50 (hGLP-1R [7]) was 252 nM.
